Assay results as given in the NIST ThermoML archive (doi:10.1021/je020191g).
Where “and” joins values, the source holds several entries; their conditions need not be identical. Equal values may be shown once. ± gives the expanded uncertainty stated by the source.

Assays:
[1] = 101.33 kPa, Liquid
[2] = xn = mol fraction of the nth substance listed; settings: 101.33 kPa, Liquid

Structure (SMILES): C1CCNC1 [pyrrolidine]
- mass density ([1]; 298.15 K): 854.6 ± 4.2 kg/m3
- mass density ([1]; 323.15 K): 833.7 ± 4.1 kg/m3

Structure (SMILES): C1CCNC1 [pyrrolidine] + O
- mass density ([2]; 298.15 K, x1 = 0.099): 976 ± 4.8 kg/m3
- mass density ([2]; 298.15 K, x1 = 0.1): 973.9 ± 4.8 kg/m3
- mass density ([2]; 298.15 K, x1 = 0.199): 956.6 ± 4.7 kg/m3
- mass density ([2]; 298.15 K, x1 = 0.204): 952.8 ± 4.7 kg/m3
- mass density ([2]; 298.15 K, x1 = 0.297): 934.7 ± 4.6 kg/m3
- mass density ([2]; 298.15 K, x1 = 0.299): 938.8 ± 4.7 kg/m3
- mass density ([2]; 298.15 K, x1 = 0.396): 925.8 ± 4.6 kg/m3
- mass density ([2]; 298.15 K, x1 = 0.399): 925.4 ± 4.6 kg/m3
- mass density ([2]; 298.15 K, x1 = 0.497): 912.1 ± 4.5 kg/m3
- mass density ([2]; 298.15 K, x1 = 0.498): 911.5 ± 4.5 kg/m3
- mass density ([2]; 298.15 K, x1 = 0.589): 901.1 ± 4.4 kg/m3
- mass density ([2]; 298.15 K, x1 = 0.596): 900.2 ± 4.4 kg/m3
- mass density ([2]; 298.15 K, x1 = 0.675): 893.8 ± 4.4 kg/m3
- mass density ([2]; 298.15 K, x1 = 0.697): 893.4 ± 4.4 kg/m3
- mass density ([2]; 298.15 K, x1 = 0.786): 879.9 ± 4.3 kg/m3
- mass density ([2]; 298.15 K, x1 = 0.796): 877.1 ± 4.3 kg/m3
- mass density ([2]; 298.15 K, x1 = 0.882): 865.3 ± 4.3 kg/m3
- mass density ([2]; 298.15 K, x1 = 0.888): 865.6 ± 4.3 kg/m3
- mass density ([2]; 298.15 K, x1 = 0.995): 852.9 ± 4.2 kg/m3 and 856.2 ± 4.2 kg/m3
- mass density ([2]; 323.15 K, x1 = 0.099): 960 ± 4.7 kg/m3
- mass density ([2]; 323.15 K, x1 = 0.1): 963.6 ± 4.8 kg/m3
- mass density ([2]; 323.15 K, x1 = 0.199): 941.5 ± 4.6 kg/m3
- mass density ([2]; 323.15 K, x1 = 0.204): 937.2 ± 4.6 kg/m3
- mass density ([2]; 323.15 K, x1 = 0.297): 921.2 ± 4.6 kg/m3
- mass density ([2]; 323.15 K, x1 = 0.299): 924.5 ± 4.6 kg/m3
- mass density ([2]; 323.15 K, x1 = 0.396): 904 ± 4.5 kg/m3
- mass density ([2]; 323.15 K, x1 = 0.399): 907.4 ± 4.5 kg/m3
- mass density ([2]; 323.15 K, x1 = 0.497): 891.1 ± 4.4 kg/m3
- mass density ([2]; 323.15 K, x1 = 0.498): 891.2 ± 4.4 kg/m3
- mass density ([2]; 323.15 K, x1 = 0.589): 883.5 ± 4.4 kg/m3
- mass density ([2]; 323.15 K, x1 = 0.596): 879.9 ± 4.3 kg/m3
- mass density ([2]; 323.15 K, x1 = 0.675): 871.3 ± 4.3 kg/m3
- mass density ([2]; 323.15 K, x1 = 0.697): 868.5 ± 4.3 kg/m3
- mass density ([2]; 323.15 K, x1 = 0.786): 858.3 ± 4.2 kg/m3
- mass density ([2]; 323.15 K, x1 = 0.796): 858.6 ± 4.2 kg/m3
- mass density ([2]; 323.15 K, x1 = 0.882): 843.5 ± 4.2 kg/m3
- mass density ([2]; 323.15 K, x1 = 0.888): 845.6 ± 4.2 kg/m3
- mass density ([2]; 323.15 K, x1 = 0.995): 834.6 ± 4.1 kg/m3 and 832.8 ± 4.1 kg/m3

Structure (SMILES): C1COCCN1 [tetrahydro-1,4-oxazine]
- mass density ([1]; 298.15 K): 996 ± 4.9 kg/m3
- mass density ([1]; 333.15 K): 965.9 ± 4.7 kg/m3

Structure (SMILES): C1COCCN1 [tetrahydro-1,4-oxazine] + O
- mass density ([2]; 298.15 K, x1 = 0.1): 1023.2 ± 5 kg/m3 and 1010.6 ± 5 kg/m3
- mass density ([2]; 298.15 K, x1 = 0.199): 1031.5 ± 5.1 kg/m3 and 1025.9 ± 5 kg/m3
- mass density ([2]; 298.15 K, x1 = 0.298): 1030.9 ± 5.1 kg/m3
- mass density ([2]; 298.15 K, x1 = 0.299): 1029.6 ± 5.1 kg/m3
- mass density ([2]; 298.15 K, x1 = 0.398): 1029.8 ± 5.1 kg/m3 and 1028.4 ± 5 kg/m3
- mass density ([2]; 298.15 K, x1 = 0.497): 1023.4 ± 5.1 kg/m3
- mass density ([2]; 298.15 K, x1 = 0.498): 1025.5 ± 5.1 kg/m3
- mass density ([2]; 298.15 K, x1 = 0.591): 1016.8 ± 5 kg/m3
- mass density ([2]; 298.15 K, x1 = 0.597): 1019.4 ± 5 kg/m3
- mass density ([2]; 298.15 K, x1 = 0.692): 1013.5 ± 5 kg/m3
- mass density ([2]; 298.15 K, x1 = 0.696): 1013.5 ± 5 kg/m3
- mass density ([2]; 298.15 K, x1 = 0.793): 1005.7 ± 4.9 kg/m3
- mass density ([2]; 298.15 K, x1 = 0.796): 1003.9 ± 4.9 kg/m3
- mass density ([2]; 298.15 K, x1 = 0.895): 997.4 ± 4.9 kg/m3
- mass density ([2]; 298.15 K, x1 = 0.897): 999.2 ± 4.9 kg/m3
- mass density ([2]; 298.15 K, x1 = 0.995): 996 ± 4.9 kg/m3 and 994.9 ± 4.9 kg/m3
- mass density ([2]; 333.15 K, x1 = 0.1): 1001.2 ± 4.9 kg/m3 and 1005.4 ± 4.9 kg/m3
- mass density ([2]; 333.15 K, x1 = 0.199): 1010.5 ± 5 kg/m3 and 1006.2 ± 4.9 kg/m3
- mass density ([2]; 333.15 K, x1 = 0.298): 1010.6 ± 5.1 kg/m3
- mass density ([2]; 333.15 K, x1 = 0.299): 1006.8 ± 5.1 kg/m3
- mass density ([2]; 333.15 K, x1 = 0.398): 1006.1 ± 4.9 kg/m3 and 1005.1 ± 4.9 kg/m3
- mass density ([2]; 333.15 K, x1 = 0.497): 1000.6 ± 5.3 kg/m3
- mass density ([2]; 333.15 K, x1 = 0.498): 996.6 ± 5.3 kg/m3
- mass density ([2]; 333.15 K, x1 = 0.591): 990.3 ± 4.9 kg/m3
- mass density ([2]; 333.15 K, x1 = 0.597): 999 ± 4.9 kg/m3
- mass density ([2]; 333.15 K, x1 = 0.692): 982.6 ± 4.9 kg/m3
- mass density ([2]; 333.15 K, x1 = 0.696): 989.6 ± 4.9 kg/m3
- mass density ([2]; 333.15 K, x1 = 0.793): 976 ± 4.8 kg/m3
- mass density ([2]; 333.15 K, x1 = 0.796): 976.4 ± 4.8 kg/m3
- mass density ([2]; 333.15 K, x1 = 0.895): 968.9 ± 4.8 kg/m3
- mass density ([2]; 333.15 K, x1 = 0.897): 969.3 ± 4.8 kg/m3
- mass density ([2]; 333.15 K, x1 = 0.995): 967.3 ± 4.7 kg/m3 and 964.4 ± 4.7 kg/m3

Structure (SMILES): O [water]
- mass density ([1]; 323.15 K): 988.04 ± 4.9 kg/m3
- mass density ([1]; 333.15 K): 983.2 ± 4.8 kg/m3

Structure (SMILES): O [water] + C1CCNC1
- mass density ([2]; 323.15 K, x2 = 0): 988.04 ± 4.9 kg/m3

Structure (SMILES): O [water] + C1COCCN1
- mass density ([2]; 333.15 K, x2 = 0): 983.2 ± 4.8 kg/m3
